# Source: patent publication US20240002397A1, “3-AMINO PYRROLIDINE AND PIPERIDINE MACROCYCLIC OREXIN RECEPTOR AGONISTS” (Merck Sharp & Dohme LLC, priority 2020, published 2024)
# Target: T1, human OX2R (Homo sapiens, UniProt O43614)
# T1 sequence (O43614 1-444): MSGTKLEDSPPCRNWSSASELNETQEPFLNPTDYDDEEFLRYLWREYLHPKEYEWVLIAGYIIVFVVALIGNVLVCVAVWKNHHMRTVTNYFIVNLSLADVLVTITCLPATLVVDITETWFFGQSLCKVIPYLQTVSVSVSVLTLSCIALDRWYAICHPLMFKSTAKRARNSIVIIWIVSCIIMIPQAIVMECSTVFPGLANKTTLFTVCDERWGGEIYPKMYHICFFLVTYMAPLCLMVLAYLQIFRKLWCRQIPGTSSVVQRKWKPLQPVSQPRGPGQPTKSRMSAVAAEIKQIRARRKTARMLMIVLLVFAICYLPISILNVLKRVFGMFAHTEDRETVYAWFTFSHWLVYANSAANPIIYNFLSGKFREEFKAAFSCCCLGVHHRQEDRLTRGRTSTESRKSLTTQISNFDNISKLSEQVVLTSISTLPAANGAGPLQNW
# Assay: IPOne (IP-1) orexin receptor agonist assay in CHO cells expressing human OX2R
# Conditions: CHO, hOX2R IP-One; percentage of mean max effect of a reference compound at 1 uM with 100% activity
# Procedure: In atypical experiment, the OX1 and OX2 receptor agonist activity is determined in accordance with the following general experimental method. Chinese hamster ovary (CHO) cells expressing human OX1R and/or the human OX2R were grown in Iscove's modified DMEM containing glutaMAX™, 1% G418, 100 U/mL penicillin, 100 μg/mL streptomycin and 10% heat-inactivated qualified fetal bovine serum (FBS). […] During this incubation, IP-one detection reagents were prepared (38:1:1 lysis buffer:D2:AB-cryptate reagents).
# For each compound, data were fit to a four parameter logistic fit (ActivityBase software) and the EC50 was reported as the inflection point of the resulting curve.
row,Compound,Emax [%]
1,"C[C@@H]1C[C@H](NS(C)(=O)=O)[C@@H]2COC3CCC(CC3)c3ccc(F)c(n3)CCCCOC(=O)N12 [Example 110, N-((2^1S,2^4S,5^2R,5^3S,5^5R)-1^5-fluoro-5^5-methyl-6-oxo-3,7-dioxa-1(2,6)-pyridina-5(2,1)-pyrrolidina-2(1,4)-cyclohexanacycloundecaphane-5^3-yl)methanesulfonamide]",102
2,"COc1cc2nc(c1)C1CCC(CC1)OC[C@H]1[C@@H](NS(C)(=O)=O)C[C@@H](C)N1C(=O)OCCCC2 [Example 111, N-((2^1S,2^4S,5^2R,5^3S,5^5R)-1^4-methoxy-5^5-methyl-6-oxo-3,7-dioxa-1(2,6)-pyridina-5(2,1)-pyrrolidina-2(1,4)-cyclohexanacycloundecaphane-5^3-yl)methanesulfonamide]",99.6

# Further lines, results first:
row,Emax [%],Compound
1,102,"CNC[C@@H]1C[C@H](NS(C)(=O)=O)C2COC3CCC(CC3)c3cc(C(F)F)cc(n3)OCCCOC(=O)N21 (stereo partly shown) [Example 101, N-((2^1S,2^4S,5^2R,5^3S,5^5S)-1^4-(difluoromethyl)-5^5-((methylamino)methyl)-6-oxo-3,7,11-trioxa-1(2,6)-pyridina-5(2,1)-pyrrolidina-2(1,4)-cyclohexanacycloundecaphane-5^3-yl)methanesulfonamide]"
2,99.8,"CS(=O)(=O)N[C@H]1C[C@@H](CC(N)=O)N2C(=O)OCCCOc3cc(C(F)F)cc(n3)C3CCC(CC3)OCC12 (stereo partly shown) [Example 102, 2-((2^1S,2^4S,5^2R,5^3S,5^5S)-1^4-(difluoromethyl)-5^3-(methylsulfonamido)-6-oxo-3,7,11-trioxa-1(2,6)-pyridina-5(2,1)-pyrrolidina-2(1,4)-cyclohexanacycloundecaphane-5^5-yl)acetamide]"
3,102,"COc1cc2nc(c1)C1CCC(CC1)OCC1[C@@H](NS(=O)(=O)CF)C[C@@H](C)N1C(=O)OCCO2 (stereo partly shown) [Example 104, 1-fluoro-N-((2^1R,2^4R,5^2R,5^3S,5^5R)-1^4-methoxy-5^5-methyl-6-oxo-3,7,10-trioxa-1(2, 6)-pyridina-5(2,1)-pyrro-lidina-2(1,4)-cyclohexana-cyclodecaphane-5^3-yl)methanesulfonamide]"
4,99.7,"COc1cc2nc(c1)C1CCC(CC1)OCC1[C@@H](NS(=O)(=O)C(F)F)C[C@@H](C)N1C(=O)OCCO2 (stereo partly shown) [Example 105, 1,1-difluoro-N-((2^1R,2^4R,5^2R,5^3S,5^5R)-14-methoxy-5^5-methyl-6-oxo-3,7,10-trioxa-1(2,6)-pyridina-5(2,1)-pyrrolidina-2(1,4)-cyclohex-anacyclodecaphane-5^3-yl)methanesulfonamide]"
5,97.3,"CCS(=O)(=O)N[C@H]1C[C@@H](C)N2C(=O)OCCCOc3cc(OC)cc(n3)C3CCC(CC3)OCC12 (stereo partly shown) [Example 106, N-((2^1R,2^4R,5^2R,5^3S,5^5R)-1^4-methoxy-5^5-methyl-6-oxo-3,7,11-trioxa-1(2,6)-pyridina-5(2,1)-pyrrolidina-2(1,4)-cyclohex-anacycloundecaphane-5^3-yl)ethanesulfonamide]"
6,101,"COc1cc2nc(c1)C1CCC(CC1)OCC1[C@@H](NS(=O)(=O)CF)C[C@@H](C)N1C(=O)OCCCO2 (stereo partly shown) [Example 107, 1-fluoro-N-((2^1R,2^4R,5^2R, 5^3S,5^5R)-1^4-methoxy-5^5-methyl-6-oxo-3,7,11-trioxa-1(2,6)-pyridina-5(2,1)-pyrrolidina-2(1,4)-cyclohexanacycloundecaphane-5^3-yl)methanesulfonamide]"
7,104,"COc1cc2nc(c1)C1CCC(CC1)OCC1[C@@H](NS(=O)(=O)C(F)F)C[C@@H](C)N1C(=O)OCCCO2 (stereo partly shown) [Example 108, 1,1-difluoro-N-((2^1R,2^4R,5^2R,5^3S,5^5R)-14-methoxy-5^5-methyl-6-oxo-3,7,11-trioxa-1(2,6)-pyridina-5(2,1)-pyrrolidina-2(1,4)-cyclohexanacycloundecaphane-5^3-yl)methanesulfonamide]"

# Same assay, conditions: hOX2R IP-One; percentage of mean max effect of a reference compound at 1 uM with 100% activity
row,Compound,Emax (%)
1,"CCS(=O)(=O)NC1CC(C)N2C(=O)OCCOc3cc(OC)cc(n3)C3CCC(CC3)OCC12 (stereo not shown) [Example 103, N-((2^1R,2^4R,5^2R,5^3S,5^5R)-1^4-methoxy-5^5-methyl-6-oxo-3,7,10-trioxa-1(2,6)-pyridina-5(2,1)-pyrrolidina-2(1,4)-cyclohexanacyclodecaphane-5^3-yl)ethanesulfonamide]",103.0
2,"CC1CC(NS(C)(=O)=O)C2COC3CCC(CC3)c3cc(C(F)(F)F)cc(n3)CCCCOC(=O)N12 (stereo not shown) [Example 109, N-((2^1S,2^4S,5^2R,5^3S,5^5R)-5^5-methyl-6-oxo-14-(trifluoromethyl)-3,7-dioxa-1(2,6)-pyridina-5(2,1)-pyrrolidina-2(1,4)-cyclohexanacycloundecaphane-5^3-yl)methanesulfonamide]",102.4
3,"N-((2^1S,2^4S,5^2R,5^3S,5^5R)-1^5- fluoro-1^4-methoxy-5^5-methyl- 6-oxo-3,7,10-trioxa-1(2,6)- pyridina-5(2,1)-pyrrolidina- 2(1,4)-cyclohexanacyclode caphane-5^3-yl)methane sulfonamide [Example 74]",110.2
4,"N′-((2^1S,2^4S,5^2R,5^3S)-6-oxo-3,7-dioxa-5(2,1)-piperidina-1(1,2)-benzena-2(1,4)-cyclohexanacyclononaphane-5^3-yl)-N,N-dimethyl-sulfamide [Example 37]",5.8
